This is an account of results in patent US20070191374A1, “Substituted cinnolin-4-ylamines” (Neurogen Coroperation, priority 2004, published 2007).

One assay addresses T1, human capsaicin receptor (Homo sapiens, UniProt Q8NER1).
T1 construct: pBK-CMV expression construct encoding the full length human capsaicin receptor; expressed in transfected cells
Kind of assay: Calcium mobilization assay. Format: cell-based. The settings on record: cells expressing human capsaicin receptor, FLUO-3 fluorescence; positive control in agonist assay; read-out: approximate EC90 concentration. As to the method: This Example illustrates representative calcium mobilization assays for use in evaluating test compounds for agonist and antagonist activity.
The culture medium is emptied from the 96 well plates and FLUO-3 AM calcium sensitive dye (Molecular Probes, Eugene, Oreg.) is added to each well (dye solution: 1 mg FLUO-3 AM, 440 μL DMSO and 440 μl 20% pluronic acid in DMSO, diluted 1:250 in Krebs-Ringer HEPES (KRH) buffer (25 mM HEPES, 5 mM KCl, 0.96 mM NaH2PO4, 1 mM MgSO4, 2 mM CaCl2, 5 mM glucose, 1 mM probenecid, pH 7.4), 50 μl diluted solution per well). Plates are covered with aluminum foil and incubated at 37° C. for 1-2 hours in an environment containing 5% CO2. […]
To measure the ability of a test compound to agonize or antagonize a calcium mobilization response in cells expressing capsaicin receptors to capsaicin or other vanilloid agonist, the EC50 of the agonist capsaicin is first determined. […] Capsaicin-induced calcium mobilization is monitored using either FLUOROSKAN ASCENT (Labsystems; Franklin, Mass.) or FLIPR (fluorometric imaging plate reader system; Molecular Devices, Sunnyvale, Calif.) instruments. […] In this equation, y is the maximum fluorescence signal, x is the concentration of the agonist or antagonist (in this case, capsaicin), a is the Emax, b corresponds to the EC50 value and c is the Hill coefficient. […]
(In general: Calcium assays in cells follow changes in intracellular calcium, usually with a dye or a luminescent sensor.)

A further assay has as its target VR (Homo sapiens, UniProt Q8NER1). The settings on record: typical value, background section; read-out: K; value (binds to VR); cited from earlier work.

Where only a bound is given, the exact number is not on record here.

VR, sequence (Q8NER1 whole entry): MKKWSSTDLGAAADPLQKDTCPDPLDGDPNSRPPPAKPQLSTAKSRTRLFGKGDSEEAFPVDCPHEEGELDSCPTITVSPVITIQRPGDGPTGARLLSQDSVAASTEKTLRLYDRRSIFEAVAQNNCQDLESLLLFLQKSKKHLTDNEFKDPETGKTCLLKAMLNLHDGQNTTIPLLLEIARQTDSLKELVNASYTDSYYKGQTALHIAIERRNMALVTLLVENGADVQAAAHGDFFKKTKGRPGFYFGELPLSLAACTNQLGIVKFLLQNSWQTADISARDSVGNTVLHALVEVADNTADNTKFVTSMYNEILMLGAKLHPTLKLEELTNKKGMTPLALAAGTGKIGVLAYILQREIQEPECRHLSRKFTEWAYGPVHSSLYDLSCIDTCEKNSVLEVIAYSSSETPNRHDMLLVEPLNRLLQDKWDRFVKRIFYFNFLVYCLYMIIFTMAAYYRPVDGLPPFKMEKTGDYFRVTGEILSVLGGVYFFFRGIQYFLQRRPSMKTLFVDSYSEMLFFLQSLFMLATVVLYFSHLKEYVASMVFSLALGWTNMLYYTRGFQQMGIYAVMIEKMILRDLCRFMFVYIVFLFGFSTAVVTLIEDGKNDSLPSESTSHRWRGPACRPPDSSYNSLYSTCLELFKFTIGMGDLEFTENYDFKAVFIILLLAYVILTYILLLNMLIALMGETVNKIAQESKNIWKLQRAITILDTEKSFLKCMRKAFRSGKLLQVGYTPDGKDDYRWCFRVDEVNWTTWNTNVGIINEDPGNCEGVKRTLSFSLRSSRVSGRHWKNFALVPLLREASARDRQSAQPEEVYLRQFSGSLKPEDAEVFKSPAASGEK
T1 sequence (Q8NER1 whole entry): as above

For the compound `COc1cc(CNC(=O)CCCC/C=C/C(C)C)ccc1O` [capsaicin], the EC90 on human capsaicin receptor is roughly 100 nM.

Regarding `Cl.Cl.Cl.Cl.Cl.Cl.N.N.N.N.N.N.N.N.N.N.N.N.N.N.[O-2].[O-2].[Ru+3].[Ru+3].[Ru+4]` [ruthenium red], the Ki at VR is no less than 140000 nM.
